One test deals with HBV viral load (viral production from HepAD38 cells). Nature of the test: Activity of test compounds on viral production from HepAD38 cells (viral load by qPCR of HBV core sequence). The note with it: Hepatitis B virus, HePAD38, 120 h, viral load lowering, 5 days, qPCR of supernatant, read-out: VL HepAD38 EC50 range. It is filed as cell-based. Summed up: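 EC50 and CC50 come from four-parameter logistic fits: HBV core DNA in supernatant by TaqMan qPCR against DNA standards, normalised to DMSO controls, and cell viability by CellTiter-Glo. Cells were plated at 50,000/well without tetracycline (2% FBS) and exposed to compounds (highest 10 μM) for 5 days, 37 °C.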
For orientation: In qPCR the cycle at which signal appears reflects the starting amount.
One may read the EC50 as the concentration needed to bring the measured effect to its halfway point. With `Cn1cnc(C2CC3CC(O)(c4[nH]ncc4Cl)CC3C2)c1C(=O)Nc1ccc(F)c(Cl)c1` (centres unmarked) [Example 143, 4-(5-(4-Chloro-1H-pyrazol-5-yl)-5-hydroxyoctahydropentalen-2-yl)-N-(3-chloro-4-fluorophenyl)-1-methyl-1H-imidazole-5-carboxamide], the EC50 is below 10 nM.

With `Cc1cc(C2(O)CC3CC(c4ncn(C)c4C(=O)Nc4ccc(F)c(Cl)c4)CC3C2)n(C)n1` (single isomer, unassigned) [Example 71, N-(3-Chloro-4-fluorophenyl)-4-(5-(1,3-dimethyl-1H-pyrazol-5-yl)-5-hydroxyoctahydropentalen-2-yl)-1-methyl-1H-imidazole-5-carboxamide], the EC50 is below 10 nM. `CC(=O)Nc1cc(C2(O)CC3CC(c4ncn(C)c4C(=O)Nc4ccc(F)c(Cl)c4)CC3C2)n(C(C)C)n1` (centres unmarked) [Example 166, 4-(5-(3-Acetamido-1-isopropyl-1H-pyrazol-5-yl)-5-hydroxyoctahydropentalen-2-yl)-N-(3-chloro-4-fluorophenyl)-1-methyl-1H-imidazole-5-carboxamide]: the 50% effective concentration (EC50) is below 10 nM.

`CC(C)n1ncc(C2(O)CC3CC(c4ncn(C)c4C(=O)Nc4ccc(F)c(Cl)c4)CC3C2)c1C(F)(F)F` (centres unmarked) [Example 158, N-(3-Chloro-4-fluorophenyl)-4-(5-hydroxy-5-(1-isopropyl-5-(trifluoromethyl)-1H-pyrazol-4-yl)octahydropentalen-2-yl)-1-methyl-1H-imidazole-5-carboxamide]: the half-maximal effective concentration (EC50) was below 10 nM. Same read-out and setting: to `CN(C)C1CC2CC(c3ncn(C)c3C(=O)Nc3ccc(F)c(Cl)c3)CC2C1` (centres unmarked) [Example 43, 5-[5-(Dimethylamino)-1,2,3,3a,4,5,6,6a-octahydropentalen-2-yl]-N-(3-chloro-4-fluorophenyl)-3-methyl-4-imidazolecarboxamide] belongs 10 to 50 nM; to `CC(C)n1nc(C(F)F)cc1C1(O)CC2CC(c3ncn(C)c3C(=O)Nc3ccc(F)c(Cl)c3)CC2C1` (centres unmarked) [Example 153, N-(3-Chloro-4-fluorophenyl)-4-(5-(3-(difluoromethyl)-1-isopropyl-1H-pyrazol-5-yl)-5-hydroxyoctahydropentalen-2-yl)-1-methyl-1H-imidazole-5-carboxamide], below 10 nM; to `CC(C)n1nc(NCC(C)(C)O)c(F)c1C1(O)CC2CC(c3ncn(C)c3C(=O)Nc3ccc(F)c(Cl)c3)CC2C1` (centres unmarked) [Example 216, N-(3-Chloro-4-fluorophenyl)-4-(5-(4-fluoro-3-((2-hydroxy-2-methylpropyl)amino)-1-isopropyl-1H-pyrazol-5-yl)-5-hydroxyoctahydropentalen-2-yl)-1-methyl-1H-imidazole-5-carboxamide], below 10 nM. For `Cn1cnc(C2CC3CC(O)(c4cc(C(F)F)nn4C)CC3C2)c1C(=O)Nc1ccc(F)c(Cl)c1` (centres unmarked) [Example 133, N-(3-chloro-4-fluorophenyl)-4-(5-(3-(difluoromethyl)-1-methyl-1H-pyrazol-5-yl)-5-hydroxyoctahydropentalen-2-yl)-1-methyl-1H-imidazole-5-carboxamide], the concentration giving a half-maximal response (EC50) is below 10 nM. Consider `O=C(Nc1ccc(F)c(Cl)c1)c1[nH]cnc1C1CC2CC(O)CC2C1` (centres unmarked) [Example 223], for which the half-maximal effective concentration (EC50) was 50 to 500 nM.

Consider `[2H]C([2H])([2H])C1(O)CC2CC(c3ncn(C)c3C(=O)Nc3ccc(F)c(Cl)c3)CC2C1` (single isomer, unassigned) [Example 80, N-(3-Chloro-4-fluorophenyl)-4(5-hydroxy-5-(methyl-d3)octahydropentalen-2-yl)-1-methyl-1H-imidazole-5-carboxamide], for which the EC50 was 50 to 500 nM. With `Cn1cc(C2(O)CC3CC(c4ncn(C)c4C(=O)Nc4ccc(F)c(Cl)c4)CC3C2)c(C(O)C(F)(F)F)n1` (centres unmarked) [Example 191, N-(3-Chloro-4-fluorophenyl)-4-(5-hydroxy-5-(1-methyl-3-(2,2,2-trifluoro-1-hydroxyethyl)-1H-pyrazol-4-yl)octahydropentalen-2-yl)-1-methyl-1H-imidazole-5-carboxamide], the EC50 was 50 to 500 nM. Same read-out and setting: to `Cn1cnc(C2CC3CC(O)(CS(=O)(=O)c4ccc(F)cc4)CC3C2)c1C(=O)Nc1ccc(F)c(Cl)c1` (centres unmarked) [Example 11, N-(3-Chloro-4-fluorophenyl)-4-(5-(((4-fluorophenyl)sulfonyl)methyl)-5-hydroxyoctahydropentalen-2-yl)-1-methyl-1H-imidazole-5-carboxamide] belongs 10 to 50 nM; to `Cn1ccc(C2(O)CC3CC(c4ncn(C)c4C(=O)Nc4ccc(F)c(Cl)c4)CC3C2)n1` (centres unmarked) [Example 118, N-(3-chloro-4-fluorophenyl)-4-(5-hydroxy-5-(1-methyl-1H-pyrazol-3-yl)octahydropentalen-2-yl)-1-methyl-1H-imidazole-5-carboxamide], below 10 nM; to `CC(C)Cn1nc([N+](=O)[O-])cc1C1(O)CC2CC(c3ncn(C)c3C(=O)Nc3ccc(F)c(Cl)c3)CC2C1` (centres unmarked) [Example 165, N-(3-Chloro-4-fluorophenyl)-4-(5-hydroxy-5-(1-isobutyl-3-nitro-1H-pyrazol-5-yl)octahydropentalen-2-yl)-1-methyl-1H-imidazole-5-carboxamide], below 10 nM.

Take `Cc1cc(NC(=O)c2c(C3CC4CC(O)(c5cn(C)nc5C(F)(F)F)CC4C3)ncn2C)ccc1F` (centres unmarked) [Example 171, N-(4-Fluoro-3-methylphenyl)-4-(5-hydroxy-5-(1-methyl-3-(trifluoromethyl)-1H-pyrazol-4-yl)octahydropentalen-2-yl)-1-methyl-1H-imidazole-5-carboxamide]: the concentration for a half-maximal effect (EC50) is below 10 nM.

`Cn1cnc(C2(O)CC3CC(c4ncn(C)c4C(=O)Nc4ccc(F)c(Cl)c4)CC3C2)c1` (single isomer, unassigned) [Example 4, N-(3-Chloro-4-fluorophenyl)-4-(5-hydroxy-5-(1-methyl-1H-imidazol-4-yl)octahydropentalen-2-yl)-1-methyl-1H-imidazole-5-carboxamide]: the 50% effective concentration (EC50) is below 10 nM.

For `CC(O)c1cc(C2(O)CC3CC(c4ncn(C)c4C(=O)Nc4ccc(F)c(Cl)c4)CC3C2)n(C)n1` (centres unmarked) [Example 109, N-(3-Chloro-4-fluorophenyl)-4-(5-hydroxy-5-(3-(1-hydroxyethyl)-1-methyl-1H-pyrazol-5-yl)octahydropentalen-2-yl)-1-methyl-1H-imidazole-5-carboxamide], the EC50 is below 10 nM.

Consider `Cn1cnc(C2CC3CC(=O)CC3C2)c1C(=O)Nc1ccc(F)c(Cl)c1` (single isomer, unassigned) [Example 1, N-(3-Chloro-4-fluorophenyl)-1-methyl-4-(5-oxooctahydropentalen-2-yl)-1H-imidazole-5-carboxamide], for which the EC50 is below 10 nM. Same read-out and setting: the same measure for `Cn1cnc(C2CC3CC(O)(c4nn(C)c(C(F)(F)F)c4Br)CC3C2)c1C(=O)Nc1ccc(F)c(Cl)c1` (centres unmarked) [Example 142, 4-(5-(4-Bromo-1-methyl-5-(trifluoromethyl)-1H-pyrazol-3-yl)-5-hydroxyoctahydropentalen-2-yl)-N-(3-chloro-4-fluorophenyl)-1-methyl-1H-imidazole-5-carboxamide]: below 10 nM.

The test is the same for the next values; noted with them: viral load lowering, 5 days, qPCR of supernatant, read-out: VL HepAD38 EC50 range.
Consider `Cn1cnc(C2CC3CC(O)(Cn4cccn4)CC3C2)c1C(=O)Nc1ccc(F)c(Cl)c1` (single isomer, unassigned) [Example 129, 4-(5-((1H-pyrazol-1-yl)methyl)-5-hydroxyoctahydropentalen-2-yl)-N-(3-chloro-4-fluorophenyl)-1-methyl-1H-imidazole-5-carboxamide], for which the EC50 lay in the range of 10 to 50 nM. Regarding `Cn1cnc(C2CC3CC(NC4CC4)CC3C2)c1C(=O)Nc1ccc(F)c(Cl)c1` (single isomer, unassigned) [Example 45, 5-[-5-(Cyclopropylamino)-1,2,3,3a,4,5,6,6a-octahydropentalen-2-yl]-N-(3-chloro-4-fluorophenyl)-3-methyl-4-imidazolecarboxamide], the EC50 lay within 10 to 50 nM.

On to `O=C1CC2CC(c3nc4n(c3C(=O)Nc3ccc(F)c(Cl)c3)CCCC4)CC2C1` (centres unmarked) [Example 81, N-(3-Chloro-4-fluorophenyl)-2-(5-oxooctahydropentalen-2-yl)-5,6,7,8-tetrahydroimidazo[1,2-a]pyridine-3-carboxamide], for which the EC50 is 10 to 50 nM. Consider `Cn1cnc(C2CC3CC(O)(c4cc(OCC(O)CO)nn4C)CC3C2)c1C(=O)Nc1ccc(F)c(Cl)c1` (single isomer, unassigned) [Example 206, N-(3-Chloro-4-fluorophenyl)-4-(5-(3-(2,3-dihydroxypropoxy)-1-methyl-1H-pyrazol-5-yl)-5-hydroxyoctahydropentalen-2-yl)-1-methyl-1H-imidazole-5-carboxamide], for which the EC50 is below 10 nM.
